Laboratory results from ChEMBL document CHEMBL4382257, “Identification and Profiling of Hydantoins-A Novel Class of Potent Antimycobacterial DprE1 Inhibitors” (J Med Chem, 2018).

Key:
[1] = Intrinsic clearance in mouse liver microsomes at 0.5 uM after 30 mins in presence of NADPH by LC-MS/MS analysis; format: ADME, Microsome; conditions: 0.5 h
[2] = Intrinsic clearance in human liver microsomes at 0.5 uM after 30 mins in presence of NADPH by LC-MS/MS analysis; format: ADME, Microsome; conditions: 0.5 h
[3] = physchem; conditions: buffer, pH 7.4, logD
[4] = buffer, pH 7.4

Row | Structure (SMILES) | CLH [1] | CLH [2] | chromatographic logD [3] | logD [4]
1 | CC1(c2ccc(Br)cc2)NC(=O)N(CC(=O)c2ccc(F)cc2F)C1=O (stereo not drawn) | 1.48 mL/min/g | < 0.4 mL/min/g | 5.68 | –
2 | CC1(c2ccc(OC(F)F)cc2)NC(=O)N(CC(=O)c2ccc(F)cc2F)C1=O (stereo not drawn) | 1.78 mL/min/g | < 0.4 mL/min/g | 5.36 | –
3 | CC1(c2ccc(NS(C)(=O)=O)cc2)NC(=O)N(CC(=O)c2ccc(F)cc2F)C1=O (stereo not drawn) | 3.29 mL/min/g | 0.47 mL/min/g | 3.57 | –

Continued, values first:

Row | CLH [1] | CLH [2] | chromatographic logD [3] | logD [4] | Structure (SMILES)
4 | – | – | – | 3.38 | CC1(c2ccc(C#N)cc2)NC(=O)N(CC(=NO)c2ccc(F)cc2F)C1=O (stereo in doubt; 43a)
5 | 3.52 mL/min/g | 0.49 mL/min/g | 4.54 | – | CC1(c2ccc(C#N)cc2)NC(=O)N(CC(=O)c2ccc(F)cc2F)C1=O (stereo not drawn)
